Key:
[1] = target: T1, CDK8/CycC (Homo sapiens, UniProt P49336); assay: CDK8 inhibitory activity (TR-FRET, Kinase Tracer-236 displacement); assay type: binding; details: 1 μM of the test compound; read-out: Percent inhibition of CDK8 activity (%)
T1 construct: purchased Carna Biosciences
Protocol: (§1) The compound of the present invention was evaluated for its CDK8 inhibitory activity and CDK19 inhibitory activity by the following method. […] The primary diluted solution was dispensed in the amount of 2 μL/well to a 384-well plate, and then, a mixed solution of Eu^3+ Cryptate conjugated mouse monoclonal antibody anti-glutathione S-transferase (Cisbio) diluted 267-fold with an assay buffer and 60 nM Kinase Tracer-236 (Life technologies) was added thereto at 2 μL/well. After the addition, each kinase solution (84 ng/mL CDK8/CycC (Carna Biosciences) diluted with an assay buffer used for CDK8 inhibitory activity measurement, and 87 ng/mL CDC2L6/CycC (Carna Biosciences) diluted with an assay buffer used for CDK19 inhibitory activity measurement) was further added thereto at 2 μL/well. After the addition, the plate was left standing at room temperature for 1 hour, and then, the fluorescence intensity (excitation wavelength 320 nm, fluorescence wavelength 615 nm, 665 nm, delay time 50 μsec) was measured using an EnVision plate reader (PerkinElmer).

[2] = target: T2, CDK19 (CDC2L6/CycC) (Homo sapiens, UniProt Q9BWU1); assay: CDK19 inhibitory activity (TR-FRET, Kinase Tracer-236 displacement); assay type: binding; details: 1 μM of the test compound; read-out: Percent inhibition of CDK19 activity (%)
T2 construct: purchased Carna Biosciences
T2 sequence (Q9BWU1 whole entry): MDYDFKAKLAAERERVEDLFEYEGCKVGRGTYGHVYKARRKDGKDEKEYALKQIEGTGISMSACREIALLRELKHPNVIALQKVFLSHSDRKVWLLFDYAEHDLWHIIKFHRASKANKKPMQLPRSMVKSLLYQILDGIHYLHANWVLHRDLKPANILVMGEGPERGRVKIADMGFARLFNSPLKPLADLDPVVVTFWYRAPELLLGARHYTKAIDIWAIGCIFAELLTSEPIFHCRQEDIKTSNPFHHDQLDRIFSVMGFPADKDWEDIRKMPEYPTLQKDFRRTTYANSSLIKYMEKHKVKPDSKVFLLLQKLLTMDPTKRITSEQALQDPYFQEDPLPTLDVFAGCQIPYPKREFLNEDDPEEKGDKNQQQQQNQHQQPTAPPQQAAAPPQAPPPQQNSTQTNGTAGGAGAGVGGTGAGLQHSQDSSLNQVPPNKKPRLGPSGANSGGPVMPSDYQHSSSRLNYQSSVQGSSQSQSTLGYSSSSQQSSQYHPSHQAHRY
T2 sequence (P24863 whole entry partner): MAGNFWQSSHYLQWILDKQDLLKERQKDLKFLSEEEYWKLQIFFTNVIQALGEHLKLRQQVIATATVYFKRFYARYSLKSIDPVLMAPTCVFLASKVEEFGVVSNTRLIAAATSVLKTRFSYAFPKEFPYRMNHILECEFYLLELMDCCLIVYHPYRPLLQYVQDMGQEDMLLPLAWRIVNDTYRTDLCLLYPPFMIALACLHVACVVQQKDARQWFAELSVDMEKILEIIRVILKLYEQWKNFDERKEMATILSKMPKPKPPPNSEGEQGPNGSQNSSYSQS
Protocol: as §1

[3] = system: human multiple myeloma RPMI8226 cells; assay: Inhibitory activity against human multiple myeloma RPMI8226 cell growth (CellTiter-Glo); assay type: cell-based; details: Homo sapiens, RPMI-8226, 192 h, 1 μM of the test compound, cultured for 8 days; read-out: Percent inhibition of RPMI8226 cell growth (%)
Protocol: The compound of the present invention was evaluated for its inhibitory activity against human multiple myeloma RPMI8226 cell growth by the following method.
A suspension of human multiple myeloma RPMI8226 cells (purchased from the Health Protection Agency) was inoculated at 40 μL (300 cells/well) to a 384-well plate and cultured at 37° C. for 1 day in a 5% CO2 incubator. After the culture, each test compound solution was added thereto at a test concentration of 1 μM using TECAN D300, and the cells were further cultured for 8 days. After the culture, CellTiter-Glo™ Luminescent Cell Viability Assay reagent (Promega) was added at 40 μL/well to a 384-well plate, and the amount of luminescence was measured using a luminometer. Inhibitory activity against human multiple myeloma RPMI8226 cell growth (percent inhibition (%)) of the test compound was calculated according to the following formula, which is based on the hypothesis that the amount of residual ATP reflects the number of cells. In this formula, 100% control represents the amount of luminescence from a well with only 0.1% DMSO added. Percent inhibition (%)=(1−(amount of luminescence of the test compound)÷(100% control))×100

T1 sequence (P49336 whole entry): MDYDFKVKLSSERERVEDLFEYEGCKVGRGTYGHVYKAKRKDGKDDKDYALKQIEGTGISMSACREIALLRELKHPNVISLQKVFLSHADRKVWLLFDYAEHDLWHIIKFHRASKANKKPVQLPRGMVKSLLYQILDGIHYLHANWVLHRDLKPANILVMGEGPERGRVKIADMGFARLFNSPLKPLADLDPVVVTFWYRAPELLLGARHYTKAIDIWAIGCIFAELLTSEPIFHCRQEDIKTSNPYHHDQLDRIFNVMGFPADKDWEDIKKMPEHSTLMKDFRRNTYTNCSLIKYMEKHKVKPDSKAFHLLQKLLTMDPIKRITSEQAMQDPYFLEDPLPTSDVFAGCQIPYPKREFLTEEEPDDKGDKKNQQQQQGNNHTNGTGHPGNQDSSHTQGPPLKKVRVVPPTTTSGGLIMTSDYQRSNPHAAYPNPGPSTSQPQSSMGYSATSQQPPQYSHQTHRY
T1 sequence (P24863 whole entry partner): as the sequence (P24863 whole entry partner) above

Compound	inhibition at 1 µM [1] [%]	inhibition at 1 µM [2] [%]	inhibition at 1 µM [3] [%]
Cn1cc(-c2ccncc2/C=C/C(=O)Nc2cccc(-c3cccnc3)c2)cn1 [Example 182, (2E)-3-(4-(1-methyl-1H-pyrazol-4-yl)pyridin-3-yl)-N-(3-(pyridin-3-yl)phenyl)acrylamide]	84	78	58
O=C(/C=C/c1cnccc1-c1cncs1)Nc1ccc(CN2CCOCC2)cc1 [Example 195, (2E)-N-(4-(morpholin-4-ylmethyl)phenyl)-3-(4-(1,3-thiazol-5-yl)pyridin-3-yl)acrylamide]	94	97	52
O=C(/C=C/c1cnccc1-c1ccns1)Nc1ccc(CN2CCOCC2)cc1 [Example 196, (2E)-N-(4-(morpholin-4-ylmethyl)phenyl)-3-(4-(1,2-thiazol-5-yl)pyridin-3-yl)acrylamide]	101	98	54
CC(=O)n1cc(-c2ccncc2/C=C/C(=O)Nc2ccc(CN3CCOCC3)cc2)cn1 [Example 218, (2E)-3-(4-(1-Acetyl-1H-pyrazol-4-yl)pyridin-3-yl)-N-(4-(morpholin-4-ylmethyl)phenyl)acrylamide]	96	101	65
COc1ccc(-c2ccncc2/C=C/C(=O)Nc2ccc(CN3CCOCC3)cc2)s1 [Example 220, (2E)-3-(4-(5-methoxy-2-thienyl)pyridin-3-yl)-N-(4-(morpholin-4-ylmethyl)phenyl)acrylamide]	93	96	58
COc1ncc(-c2ccncc2/C=C/C(=O)Nc2ccc(CN3CCOCC3)cc2)s1 [Example 221, (2E)-3-(4-(2-Methoxy-1,3-thiazol-5-yl)pyridin-3-yl)-N-(4-(morpholin-4-ylmethyl)phenyl)acrylamide]	99	98	63
O=C(/C=C/c1cnccc1-c1ccc2nccn2c1)Nc1ccc(CN2CCOCC2)cc1 [Example 222, (2E)-3-(4-(imidazo[1,2-a]pyridin-6-yl)pyridin-3-yl)-N-(4-(morpholin-4-ylmethyl)phenyl)acrylamide]	101	100	52
CN(C)CCc1ccc(NC(=O)/C=C/c2cnccc2-c2cnn(C)c2)cc1 [Example 226, (2E)-N-(4-(2-(dimethylamino)ethyl)phenyl)-3-(4-(1-methyl-1H-pyrazol-4-yl)pyridin-3-yl)acrylamide]	98	98	66
Cn1cnc2ccc(-c3ccncc3/C=C/C(=O)Nc3ccc(CN4CCOCC4)cc3)cc21 [Example 234, (2E)-3-(4-(1-methyl-1H-benzimidazol-6-yl)pyridin-3-yl)-N-(4-(morpholin-4-ylmethyl)phenyl)acrylamide]	102	102	65
Cn1cc(-c2ccncc2/C=C/C(=O)Nc2cc(F)c(CN3CCOCC3)cc2F)cn1 [Example 237, (2E)-N-(2,5-difluoro-4-(morpholin-4-ylmethyl)phenyl)-3-(4-(1-methyl-1H-pyrazol-4-yl)pyridin-3-yl)acrylamide]	94	91	66
Cn1cc(-c2c(F)cncc2/C=C/C(=O)Nc2ccc(CN3CCOCC3)cc2)cn1 [Example 238, (2E)-3-(5-fluoro-4-(1-methyl-1H-pyrazol-4-yl)pyridin-3-yl)-N-(4-(morpholin-4-ylmethyl)phenyl)acrylamide]	100	100	67
O=C(/C=C/c1cnccc1-c1ccc2[nH]cnc2c1)Nc1ccc(CN2CCOCC2)cc1 [Example 241, (2E)-3-(4-(1H-benzimidazol-5-yl)pyridin-3-yl)-N-(4-(morpholin-4-ylmethyl)phenyl)acrylamide]	99	101	66
O=C(/C=C/c1cnccc1-c1ccc2[nH]ncc2c1)Nc1ccc(CN2CCOCC2)cc1 [Example 242, (2E)-3-(4-(1H-indazol-5-yl)pyridin-3-yl)-N-(4-(morpholin-4-ylmethyl)phenyl)acrylamide]	96	97	55
O=C(/C=C/c1cnccc1-c1cnn(C2CC2)c1)Nc1ccc2c(c1)CN(CC(F)(F)F)CC2 [Example 247, (2E)-3-(4-(1-Cyclopropyl-1H-pyrazol-4-yl)pyridin-3-yl)-N-(2-(2,2,2-trifluoroethyl)-1,2,3,4-tetrahydroisoquinolin-7-yl)acrylamide]	98	102	63

More lines, main results first:

inhibition at 1 µM [1] [%]	inhibition at 1 µM [2] [%]	Compound	inhibition at 1 µM [3] [%]
102	100	Cn1cc(-c2ccncc2/C=C/C(=O)Nc2ccc(N3CCOCC3)c(Cl)c2)cn1 [Example 159, (2E)-N-(3-chloro-4-(morpholin-4-yl)phenyl)-3-(4-(1-methyl-1H-pyrazol-4-yl)pyridin-3-yl)acrylamide]	60
96	94	Cn1cc(-c2ccncc2/C=C/C(=O)Nc2ccc3c(c2)OCO3)cn1 [Example 163, (2E)-N-(1,3-benzodioxol-5-yl)-3-(4-(1-methyl-1H-pyrazole-4-yl)pyridin-3-yl)acrylamide]	53
100	97	Cn1cc(-c2ccncc2/C=C/C(=O)Nc2ccc3c(c2)OCCO3)cn1 [Example 168, (2E)-N-(2,3-dihydro-1,4-benzodioxin-6-yl)-3-(4-(1-methyl-1H-pyrazol-4-yl)pyridin-3-yl)acrylamide]	59
94	90	Cn1cc(-c2ccncc2/C=C/C(=O)Nc2ccc3ncsc3c2)cn1 [Example 169, (2E)-N-(1,3-benzothiazol-6-yl)-3-(4-(1-methyl-1H-pyrazol-4-yl)pyridin-3-yl)acrylamide]	53
96	95	Cn1cc(-c2ccncc2/C=C/C(=O)Nc2ccc3c(c2)CCO3)cn1 [Example 172, (2E)-N-(2,3-dihydro-1-benzofuran-5-yl)-3-(4-(1-methyl-1H-pyrazol-4-yl)pyridin-3-yl)acrylamide]	55
98	99	Cn1cc(-c2ccncc2/C=C/C(=O)Nc2ccc3c(ccn3C)c2)cn1 [Example 175, (2E)-N-(1-Methyl-1H-indol-5-yl)-3-(4-(1-methyl-1H-pyrazol-4-yl)pyridin-3-yl)acrylamide]	55
92	87	Cn1cc(-c2ccncc2/C=C/C(=O)Nc2ccc3c(c2)CCC3=O)cn1 [Example 176, (2E)-3-(4-(1-methyl-1H-pyrazol-4-yl)pyridin-3-yl)-N-(1-oxo-2,3-dihydro-1H-inden-5-yl)acrylamide]	54
96	92	Cn1cc(-c2ccncc2/C=C/C(=O)Nc2ccc3c(c2)CCCC3=O)cn1 [Example 191, (2E)-3-(4-(1-methyl-1H-pyrazol-4-yl)pyridin-3-yl)-N-(5-oxo-5,6,7,8-tetrahydronaphthalen-2-yl)acrylamide]	56
100	98	CN1CCc2ccc(NC(=O)/C=C/c3cnccc3-c3cnn(C)c3)cc2C1 [Example 212, (2E)-3(4-(1-methyl-1H-pyrazol-4-yl)pyridin-3-yl)-N-(2-methyl-1,2,3,4-tetrahydroisoquinolin-7-yl)acrylamide]	52
100	100	COCc1ccc(NC(=O)/C=C/c2cnccc2-c2cnn(C)c2)cc1 [Example 239, (2E)-N-(4-(methoxymethyl)phenyl)-3-(4-(1-methyl-1H-pyrazol-4-yl)pyridin-3-yl)acrylamide]	65
95	93	CC(=O)N(C)Cc1cc(NC(=O)/C=C/c2cnccc2-c2cnn(C)c2)ccc1C [Example 246, (2E)-N-(3-((acetyl(methyl)amino)methyl)-4-methylphenyl)-3-(4-(1-methyl-1H-pyrazol-4-yl)pyridin-3-yl)acrylamide]	49

Reference: US9957251B2 (Takeda Pharmaceutical Company Limited, priority 2014, dated 2018)
